The values that follow come from ChEMBL document CHEMBL1201862, “PubChem BioAssay data set” (2004).

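Assay format: 96-well plates, 48-hour exposure. Here, GI50 denotes the concentration required for 50% inhibition of growth.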 Active and inactive are the calls of the source. No stated cut-off is given here; in the data, active = GI50 up to about 1.1 µM and inactive = higher.

Some test systems named below: CAKI-1; CCRF-CEM; HCT-15; HT-29; LOX IMVI; MOLT-4; NCI-H23; NCI-H460; NCI-H522; OVCAR-3; SF-295; SF-539; SK-MEL-28; SK-MEL-2; SK-OV-3; SNB-19; SR; TK-10; UACC-62; UO-31.
What all share (experiment): NCI anticancer screen, dose series, 48 h

Turning to `CCNC(=O)COc1ccc(Cl)c(C)c1`, the GI50 with CAKI-1 is > 100 µM (inactive); in the assay on CCRF-CEM it was > 100 µM (inactive); with HCT-15, more than 100 µM; in the assay on HT-29 it was > 100 µM (inactive); in the assay on LOX IMVI, > 100 µM (inactive); in the assay with MOLT-4 it was > 100 µM (inactive). In addition, the GI50 in the assay with NCI-H23, with NCI-H460, with NCI-H522, in the assay with OVCAR-3, with SF-295 and in the assay on SF-539 was > 100 µM (inactive) in each case. The GI50 with SK-MEL-28, in the assay on SK-MEL-2, with SK-OV-3, in the assay on SNB-19, with SR and in the assay with TK-10 was > 100 µM (inactive) throughout. Moreover, the GI50 with UACC-62 and in the assay with UO-31 was > 100 µM (inactive) in each case.

As to `COc1cc(C(C)c2cc3c(cc2OCCOCCOc2cc4c(cc2C(C)c2cc(OC)c(OC)c(OC)c2)OCO4)OCO3)cc(OC)c1OC` (stereo not given), the GI50 with CAKI-1 is > 10 µM (inactive); in the assay with CCRF-CEM, > 10 µM (inactive); in the assay with HCT-15, more than 10 µM; in the assay on HT-29, > 10 µM (inactive); in the assay with LOX IMVI, > 10 µM (inactive); in the assay on MOLT-4, > 10 µM (inactive). Further, the GI50 with NCI-H23 was > 10 µM (inactive); in the assay with NCI-H460 it was > 10 µM (inactive); in the assay on NCI-H522, > 10 µM (inactive); in the assay with OVCAR-3 it was > 10 µM (inactive); with SF-295 it was 46.7 µM (inactive); with SF-539 it was > 10 µM (inactive). Besides, the GI50 with SK-MEL-28, in the assay on SK-MEL-2, in the assay with SK-OV-3, in the assay on SNB-19, with SR and in the assay with TK-10 was > 10 µM (inactive) each time. Moreover, the GI50 in the assay with UACC-62 is > 10 µM (inactive); with UO-31, 29.7 µM (inactive).

As for `COc1cc2c(cc1OC)C1(COc3cc(O)c(O)c(O)c3C1=O)C2` (stereo not given), the GI50 with CAKI-1 is > 50 µM (inactive); in the assay on CCRF-CEM, > 50 µM (inactive); in the assay on HCT-15 it was more than 50 µM; with HT-29 it was > 50 µM (inactive); in the assay on LOX IMVI, > 50 µM (inactive); with MOLT-4 it was > 50 µM (inactive). Also, the GI50 in the assay on NCI-H23 is 45.4 µM (inactive); in the assay on NCI-H460, > 50 µM (inactive); in the assay on NCI-H522, > 50 µM (inactive); in the assay with OVCAR-3, > 50 µM (inactive); with SF-295 it was 25.9 µM (inactive); in the assay on SF-539, > 50 µM (inactive). In addition, the GI50 with SK-MEL-28, in the assay on SK-MEL-2, in the assay with SK-OV-3, in the assay with SNB-19, with SR and in the assay with TK-10 was > 50 µM (inactive) throughout. Further, the GI50 in the assay on UACC-62 and in the assay with UO-31 was > 50 µM (inactive) in each case.

Consider `Nc1ccc(S(=O)(=O)Nc2cnc3ccccc3n2)cc1` [SULFAQUINOXALINE], for which the GI50 with CAKI-1 was > 100 µM (inactive); in the assay on CCRF-CEM it was > 100 µM (inactive); with HCT-15 it was more than 100 µM; with HT-29 it was > 100 µM (inactive); with LOX IMVI, > 100 µM (inactive); in the assay on MOLT-4, > 100 µM (inactive). For the same compound, the GI50 with NCI-H23, in the assay with NCI-H460, in the assay on NCI-H522, with OVCAR-3, with SF-295 and in the assay with SF-539 was > 100 µM (inactive) in each case. For the same compound, the GI50 in the assay on SK-MEL-28 is > 100 µM (inactive); in the assay on SK-MEL-2, > 52.1 µM (inactive); with SK-OV-3 it was > 100 µM (inactive); in the assay on SNB-19, > 100 µM (inactive); with SR, > 100 µM (inactive); with TK-10, > 100 µM (inactive). Besides, the GI50 in the assay with UACC-62 and with UO-31 was > 100 µM (inactive) throughout.
